Common to all, as to assay type: cell-based
Series [1] deals with T1, Nav 1.7 (Homo sapiens (Human), UniProt Q15858). Kind of series: Nav 1.7 in vitro PX assay, PatchXpress whole cell voltage clamp. Conditions: HEK 293 cells stably transfected with human Nav1.7; for IC50: partially inactivated state (20 to 50% inactivation). The protocol: Nav 1.7 In Vitro PX Assay
HEK 293 cells stably transfected with human Nav1.7 were recorded in whole cell voltage clamp mode with the PatchXpress automated electrophysiology system (Molecular Devices, LLC, Sunnyvale, Calif.). Compound effects were measured on a partially inactivated state of the sodium channel. Cells were clamped to a holding potential yielding 20 to 50% inactivation. To elicit sodium current, channels were activated by pulsing to −10 mV for 20 msec. This voltage protocol was repeated at a rate of 0.1 Hz throughout the experiment. A single concentration of test compound was applied to cells for a duration of 3 minutes. Peak sodium current was measured at the end of the compound addition period to determine percent inhibition. Three to five cells were tested per concentration, and IC50 curves were fitted to percent inhibition as a function of concentration.

Series [2] has as its target T1, Nav 1.7. Put plainly: Nav 1.7 in vitro assay, IonWorks Quattro (IWQ) population patch-clamp. Particulars: HEK 293 cells stably transfected with Nav 1.7; for IC50: 26th pulse to -20 mV; for inhibition at 4.9 µM: HEK293, values marked *, read-out: Nav 1.7 IWQ percent inhibition at 4.9 μM. The protocol:
(§1) Nav 1.7 and Nav 1.5 In Vitro Assays
(§2) HEK 293 cells stably transfected with either Nav 1.7 or with Nav 1.5 were recorded in population patch-clamp mode with the IonWorks® Quattro automated electrophysiology system in accordance with the manufacturer's specifications (Molecular Devices, LLC, Sunnyvale, Calif.). Sodium channel currents were measured in response to a train of depolarizations that induced successively greater inactivation.
(§3) Cells were held at −110 mV for three seconds (Nav 1.7) or half a second (Nav 1.5) from a holding voltage of −15 mV, then put through a series of 26 pulses of 150 msec duration to −20 mV at a frequency of 5 Hz. Cells were then left unclamped for a period of 3 to 8 minutes while a single concentration of test compound was added. Cells were then reclamped and put through the same voltage protocol. Current at the end of the 26th pulse to −20 mV was subtracted from the peak current evoked by the 26th pulse to −20 mV to correct for leak current. Percent block was calculated for each concentration in duplicate, and IC50 curves were fitted to percent block as a function of concentration.

In a further series the target is Nav 1.5 (Homo sapiens (Human), UniProt Q14524). Put plainly: Nav 1.5 in vitro assay, IonWorks Quattro (IWQ) population patch-clamp. Particulars: HEK 293 cells stably transfected with Nav 1.5; 26th pulse to -20 mV. The protocol:
as §1, §2, §3

Consider 21 compounds from patent US9346798B2, “Dihydrobenzoxazine and tetrahydroquinoxaline sodium channel inhibitors” (AMGEN INC., priority 2012, dated 2016).

SMILES strings stand for the structures. Some results are limits rather than exact numbers.

T1 sequence (Q15858 whole entry): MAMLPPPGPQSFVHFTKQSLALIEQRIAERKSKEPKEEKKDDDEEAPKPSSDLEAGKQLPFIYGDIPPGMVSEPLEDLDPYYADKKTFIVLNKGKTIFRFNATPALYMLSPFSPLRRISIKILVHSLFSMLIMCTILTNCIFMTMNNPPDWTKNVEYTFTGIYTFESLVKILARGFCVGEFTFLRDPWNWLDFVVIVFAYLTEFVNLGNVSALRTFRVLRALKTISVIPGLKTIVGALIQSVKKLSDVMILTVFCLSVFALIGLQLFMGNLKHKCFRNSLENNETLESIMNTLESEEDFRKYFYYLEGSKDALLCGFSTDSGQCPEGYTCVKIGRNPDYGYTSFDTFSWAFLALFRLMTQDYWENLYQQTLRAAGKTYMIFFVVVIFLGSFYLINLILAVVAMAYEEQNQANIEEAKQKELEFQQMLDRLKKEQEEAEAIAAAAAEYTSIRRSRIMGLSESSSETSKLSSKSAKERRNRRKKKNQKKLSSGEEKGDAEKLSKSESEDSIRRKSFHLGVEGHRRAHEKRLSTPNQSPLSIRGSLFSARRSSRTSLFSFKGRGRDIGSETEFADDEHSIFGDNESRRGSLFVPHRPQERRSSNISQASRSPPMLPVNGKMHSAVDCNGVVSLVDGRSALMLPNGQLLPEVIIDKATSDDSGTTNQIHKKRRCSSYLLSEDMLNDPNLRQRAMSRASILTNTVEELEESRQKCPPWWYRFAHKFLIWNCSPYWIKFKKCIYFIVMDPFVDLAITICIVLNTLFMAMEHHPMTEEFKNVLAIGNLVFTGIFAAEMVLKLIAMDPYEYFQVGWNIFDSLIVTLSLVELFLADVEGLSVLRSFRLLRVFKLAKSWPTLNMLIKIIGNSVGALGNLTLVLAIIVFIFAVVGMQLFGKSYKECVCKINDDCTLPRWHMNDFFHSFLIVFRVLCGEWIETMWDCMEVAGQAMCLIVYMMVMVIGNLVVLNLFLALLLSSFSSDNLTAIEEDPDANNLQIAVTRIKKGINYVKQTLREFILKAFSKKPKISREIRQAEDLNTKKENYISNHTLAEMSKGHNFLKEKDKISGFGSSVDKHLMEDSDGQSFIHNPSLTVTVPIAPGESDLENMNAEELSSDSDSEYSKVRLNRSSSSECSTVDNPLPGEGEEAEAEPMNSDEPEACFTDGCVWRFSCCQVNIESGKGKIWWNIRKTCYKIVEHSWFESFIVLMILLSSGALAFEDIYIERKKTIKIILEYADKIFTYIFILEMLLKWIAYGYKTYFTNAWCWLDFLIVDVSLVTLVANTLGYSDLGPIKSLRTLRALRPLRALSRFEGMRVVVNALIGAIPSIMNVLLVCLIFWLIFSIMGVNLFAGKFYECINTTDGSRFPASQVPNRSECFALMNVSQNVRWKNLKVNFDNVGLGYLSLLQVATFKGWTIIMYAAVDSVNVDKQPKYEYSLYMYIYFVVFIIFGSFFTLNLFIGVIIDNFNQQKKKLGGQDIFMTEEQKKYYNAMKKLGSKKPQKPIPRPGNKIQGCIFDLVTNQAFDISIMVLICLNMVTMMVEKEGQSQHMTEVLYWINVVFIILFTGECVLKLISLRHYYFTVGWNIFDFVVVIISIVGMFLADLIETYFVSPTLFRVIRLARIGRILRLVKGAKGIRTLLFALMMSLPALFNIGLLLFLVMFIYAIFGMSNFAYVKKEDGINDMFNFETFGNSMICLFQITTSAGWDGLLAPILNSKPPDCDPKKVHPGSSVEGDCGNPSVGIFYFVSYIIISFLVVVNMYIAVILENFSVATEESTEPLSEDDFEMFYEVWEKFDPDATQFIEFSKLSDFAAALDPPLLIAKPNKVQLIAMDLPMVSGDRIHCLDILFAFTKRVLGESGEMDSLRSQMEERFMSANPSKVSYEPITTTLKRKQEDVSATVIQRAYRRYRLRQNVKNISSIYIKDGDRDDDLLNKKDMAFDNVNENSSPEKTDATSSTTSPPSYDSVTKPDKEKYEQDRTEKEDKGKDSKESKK
Sequence of Nav 1.5 (Q14524 whole entry): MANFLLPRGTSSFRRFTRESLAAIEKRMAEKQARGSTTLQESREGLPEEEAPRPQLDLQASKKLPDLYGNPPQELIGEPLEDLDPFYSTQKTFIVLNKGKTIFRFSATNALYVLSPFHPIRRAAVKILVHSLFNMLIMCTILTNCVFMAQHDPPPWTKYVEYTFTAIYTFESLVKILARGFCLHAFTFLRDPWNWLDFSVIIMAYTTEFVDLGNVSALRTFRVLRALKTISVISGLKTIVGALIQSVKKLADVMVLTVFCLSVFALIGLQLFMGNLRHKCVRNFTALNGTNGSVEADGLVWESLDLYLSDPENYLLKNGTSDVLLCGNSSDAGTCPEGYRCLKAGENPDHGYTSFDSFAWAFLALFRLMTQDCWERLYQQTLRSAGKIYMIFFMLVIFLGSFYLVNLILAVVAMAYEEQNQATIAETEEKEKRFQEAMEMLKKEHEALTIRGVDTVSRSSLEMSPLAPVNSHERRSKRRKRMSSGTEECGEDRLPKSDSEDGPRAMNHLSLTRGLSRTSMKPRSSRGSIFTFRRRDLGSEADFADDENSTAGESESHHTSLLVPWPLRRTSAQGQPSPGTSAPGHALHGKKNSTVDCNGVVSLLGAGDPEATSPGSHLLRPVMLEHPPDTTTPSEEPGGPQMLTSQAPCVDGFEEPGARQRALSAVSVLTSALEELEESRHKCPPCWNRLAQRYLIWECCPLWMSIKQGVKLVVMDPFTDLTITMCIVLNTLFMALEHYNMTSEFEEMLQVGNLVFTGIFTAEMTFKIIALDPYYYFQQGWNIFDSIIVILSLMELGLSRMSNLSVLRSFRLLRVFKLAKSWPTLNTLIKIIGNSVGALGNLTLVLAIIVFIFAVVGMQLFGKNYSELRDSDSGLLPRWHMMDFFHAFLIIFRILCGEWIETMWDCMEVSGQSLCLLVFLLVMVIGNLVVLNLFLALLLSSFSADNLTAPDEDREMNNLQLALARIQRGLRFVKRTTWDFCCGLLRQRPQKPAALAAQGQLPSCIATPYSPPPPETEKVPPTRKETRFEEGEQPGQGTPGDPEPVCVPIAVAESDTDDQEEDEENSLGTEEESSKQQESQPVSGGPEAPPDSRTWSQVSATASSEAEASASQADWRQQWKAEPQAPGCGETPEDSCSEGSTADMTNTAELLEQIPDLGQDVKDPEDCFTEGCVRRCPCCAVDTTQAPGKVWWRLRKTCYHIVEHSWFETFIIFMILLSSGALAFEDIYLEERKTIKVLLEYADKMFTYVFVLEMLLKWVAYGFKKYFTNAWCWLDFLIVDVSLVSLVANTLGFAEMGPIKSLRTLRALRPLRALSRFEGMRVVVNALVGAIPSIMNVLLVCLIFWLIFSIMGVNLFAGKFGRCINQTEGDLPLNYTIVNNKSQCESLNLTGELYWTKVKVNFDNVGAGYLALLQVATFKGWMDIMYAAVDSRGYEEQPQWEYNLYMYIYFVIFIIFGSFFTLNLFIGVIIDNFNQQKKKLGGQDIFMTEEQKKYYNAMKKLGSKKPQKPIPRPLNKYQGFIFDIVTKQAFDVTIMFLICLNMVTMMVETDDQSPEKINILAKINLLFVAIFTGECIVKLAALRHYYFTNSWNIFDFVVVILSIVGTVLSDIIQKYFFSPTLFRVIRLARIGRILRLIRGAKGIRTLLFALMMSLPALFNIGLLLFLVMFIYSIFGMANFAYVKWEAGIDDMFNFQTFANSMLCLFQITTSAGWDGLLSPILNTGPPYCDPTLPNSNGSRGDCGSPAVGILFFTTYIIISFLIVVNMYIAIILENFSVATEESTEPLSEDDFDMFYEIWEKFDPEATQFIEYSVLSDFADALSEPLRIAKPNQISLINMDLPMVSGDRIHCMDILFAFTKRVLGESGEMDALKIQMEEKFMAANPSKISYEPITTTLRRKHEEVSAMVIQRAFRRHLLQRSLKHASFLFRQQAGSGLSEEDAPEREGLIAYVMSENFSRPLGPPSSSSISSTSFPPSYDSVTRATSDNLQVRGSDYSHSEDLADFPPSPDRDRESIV

For orientation: IC50 means the concentration needed to halve the response being measured. Read a low IC50 as higher potency. Turning to `COc1nc(C(F)(F)F)ccc1N1CCOc2cc(S(=O)(=O)Nc3nccs3)ccc21` [Example 214, 4-(2-Methoxy-6-(Trifluoromethyl)Pyridin-3-Yl)-N-(Thiazol-2-Yl)-3,4-Dihydro-2H-Benzo[B][1,4]Oxazine-7-Sulfonamide], the IC50 against Nav 1.7 [1] was 0.8 µM; on Nav 1.7 [2], 0.0685 µM; at Nav 1.5, more than 10 µM. The corresponding values for `O=S(=O)(Nc1nccs1)c1ccc2c(c1)OCCN2c1ccccc1OC(F)F` [Example 179, 4-(2-(Difluoromethoxy)Phenyl)-N-(Thiazol-2-Yl)-3,4-Dihydro-2H-Benzo[B][1,4]Oxazine-7-Sulfonamide 2,2,2-Trifluoroacetate] are 0.75 µM, 0.112 µM and 5.64 µM. The corresponding values for `C[C@@H]1CN(c2ccc(C(F)(F)F)cc2C#N)c2ccc(S(=O)(=O)Nc3nccs3)cc2O1` (single isomer, unassigned) [Example 95] are 0.293 µM, 0.0705 µM and 6.67 µM. As to `COc1ccc(N2CCOc3cc(S(=O)(=O)Nc4ncns4)ccc32)cc1` [Example 37, 4-(4-Methoxyphenyl)-N-(1,2,4-Thiadiazol-5-Yl)-3,4-Dihydro-2H-Benzo[B][1,4]Oxazine-7-Sulfonamide], the IC50 on Nav 1.7 [1] is 2.2 µM; against Nav 1.7 [2] it was 0.207 µM; against Nav 1.5 it was more than 10 µM.

On to `CN(C)CCn1ccc(NS(=O)(=O)c2ccc3c(c2)OCCN3c2ccc(C(F)(F)F)cc2Cl)n1` [Example 14, 4-(2-Chloro-4-(Trifluoromethyl)Phenyl)-N-(1-(2-(Dimethylamino)Ethyl)-1H-Pyrazol-3-Yl)-3,4-Dihydro-2H-Benzo[B][1,4]Oxazine-7-Sulfonamide 2,2,2-Trifluoroacetate], for which the IC50 against Nav 1.7 [2] turned out to be 9.31 µM; against Nav 1.5 it was 8.25 µM. Broadly, the inhibition is the percentage by which the read-out fell short of the control. For `O=C1COc2cc(S(=O)(=O)Nc3nncs3)ccc2N1c1cccc(Cl)c1` [Example 92, 4-(3-Chlorophenyl)-3-Oxo-N-(1,3,4-Thiadiazol-2-Yl)-3,4-Dihydro-2H-Benzo[B][1,4]Oxazine-7-Sulfonamide], the inhibition at 4.9 µM on Nav 1.7 [2] was 26.4%. Besides, the IC50 at Nav 1.5 was more than 10 µM. Turning to `N#Cc1cncc(N2CCOc3cc(S(=O)(=O)Nc4nccs4)ccc32)c1` [Example 117, 4-(5-Cyanopyridin-3-yl)-N-(thiazol-2-yl)-3,4-dihydro-2H-benzo[b][1,4]oxazine-7-sulfonamide], the IC50 was 2.14 µM against Nav 1.7 [2] and more than 10 µM against Nav 1.5.

Turning to `CC(=O)N1CCN(c2ccc(C(F)(F)F)cc2Cl)c2ccc(S(=O)(=O)Nc3ncns3)cc21` [Example 20, 4-Acetyl-1-(2-Chloro-4-(Trifluoromethyl)Phenyl)-N-(1,2,4-Thiadiazol-5-Yl)-1,2,3,4-Tetrahydroquinoxaline-6-Sulfonamide], the inhibition at 4.9 µM at Nav 1.7 [1] (HEK293, values marked *, 4.9 μM, read-out: Nav 1.7 PX percent inhibition at 4.9 μM) was 33.2%. The IC50 against Nav 1.7 [2] was 7.6 µM. For the compound `Cn1ccc(NS(=O)(=O)c2ccc3c(c2)OCCN3c2ccc(C(F)(F)F)cc2Cl)n1` [Example 15, 4-(2-Chloro-4-(Trifluoromethyl)Phenyl)-N-(1-Methyl-1H-Pyrazol-3-Yl)-3,4-Dihydro-2H-Benzo[B][1,4]Oxazine-7-Sulfonamide], the values for the IC50 against Nav 1.7 [2] and at Nav 1.5 were 6.11 µM and more than 10 µM, respectively. The like results for `Cc1ccc(N2CCOc3cc(S(=O)(=O)Nc4nccs4)ccc32)c(C)n1` [Example 132, 4-(2,6-Dimethylpyridin-3-yl)-N-(thiazol-2-yl)-3,4-dihydro-2H-benzo[b][1,4]oxazine-7-sulfonamide] were, in that order, 3.56 µM and more than 10 µM.

Turning to `O=S(=O)(Nc1cncs1)c1ccc2c(c1)OCCN2c1ccc(C(F)(F)F)cc1C1=CCNCC1` [Example 85, 4-(2-(1,2,3,6-Tetrahydropyridin-4-Yl)-4-(Trifluoromethyl)Phenyl)-N-(Thiazol-5-Yl)-3,4-Dihydro-2H-Benzo[B][1,4]Oxazine-7-Sulfonamide 2,2,2-Trifluoroacetate], the inhibition at 4.9 µM at Nav 1.7 [2] was determined as 41.1%. This compound also displayed a 50% inhibitory concentration (IC50) on Nav 1.5 of more than 10 µM. For `O=S(=O)(Nc1nccs1)c1ccc2c(c1)OCCN2c1ccc(Cl)cc1C1=CCNCC1` [Example 52, 4-(4-Chloro-2-(1,2,3,6-Tetrahydropyridin-4-Yl)Phenyl)-N-(Thiazol-2-Yl)-3,4-Dihydro-2H-Benzo[B][1,4]Oxazine-7-Sulfonamide 2,2,2-Trifluoroacetate], the IC50 against Nav 1.7 [1] amounted to 0.0355 µM; at Nav 1.7 [2], 0.0045 µM. With `CCN(CC)C(=O)CN1CCOc2cc(S(=O)(=O)Nc3nccs3)ccc21` [Example 228, N,N-Diethyl-2-(7-(N-(Thiazol-2-Yl)Sulfamoyl)-2H-Benzo[B][1,4]Oxazin-4(3 H)-Yl)Acetamide], the inhibition at 4.9 µM at Nav 1.7 [2] came to 20%. This compound also came in with an IC50 on Nav 1.5 of more than 10 µM. In the case of `COc1ccc(N2CCOc3cc(S(=O)(=O)Nc4nccs4)ccc32)cc1OC` [Example 119, 4-(3,4-Dimethoxyphenyl)-N-(thiazol-2-yl)-3,4-dihydro-2H-benzo[b][1,4]oxazine-7-sulfonamide], the results for the half-maximal inhibitory concentration (IC50) against Nav 1.7 [2] and at Nav 1.5 were 2.53 µM and more than 10 µM, respectively. For the compound `Cc1cnc(NS(=O)(=O)c2ccc3c(c2)OCCN3c2ccc(C(F)(F)F)cc2Cl)s1` [Example 12, 4-(2-Chloro-4-(Trifluoromethyl)Phenyl)-N-(5-Methylthiazol-2-Yl)-3,4-Dihydro-2H-Benzo[B][1,4]Oxazine-7-Sulfonamide], at Nav 1.7 [2], the inhibition at 4.9 µM amounted to 24.5%. On Nav 1.5, the IC50 is more than 10 µM.

`COc1ccc(N2CCOc3cc(S(=O)(=O)Nc4nccs4)ccc32)c(C#N)c1` [Example 153, 4-(2-Cyano-4-Methoxyphenyl)-N-(Thiazol-2-Yl)-3,4-Dihydro-2H-Benzo[B][1,4]Oxazine-7-Sulfonamide 2,2,2-Trifluoroacetate] showed a half-maximal inhibitory concentration (IC50) on Nav 1.5 of more than 10 µM. In the case of `Cc1ccc2cnccc2c1N1CCOc2cc(S(=O)(=O)Nc3nccs3)ccc21` [Example 73, 4-(6-Methylisoquinolin-5-Yl)-N-(Thiazol-2-Yl)-3,4-Dihydro-2H-Benzo[B][1,4]Oxazine-7-Sulfonamide 2,2,2-Trifluoroacetate], the IC50 at Nav 1.7 [2] was 7.58 µM; at Nav 1.5 it was more than 10 µM. Consider `CC(C)(C)OC(=O)N1CC=C(c2cc(C(F)(F)F)ccc2N2CCOc3cc(S(=O)(=O)Nc4ncns4)ccc32)CC1` [Example 6, Tert-Butyl 4-(2-(7-(N-(1,2,4-Thiadiazol-5-Yl)Sulfamoyl)-2H-Benzo[B][1,4]Oxazin-4(3H)-Yl)-5-(Trifluoromethyl)Phenyl)-5,6-Dihydropyridine-1(2H)-Carboxylate], for which half-maximal inhibition against Nav 1.5 (IC50) was put at 2.29 µM. Same read-out and setting: in the case of `Cc1c(Cl)cccc1N1CCOc2cc(S(=O)(=O)Nc3nccs3)ccc21` [Example 169, 4-(3-Chloro-2-Methylphenyl)-N-(Thiazol-2-Yl)-3,4-Dihydro-2H-Benzo[B][1,4]Oxazine-7-Sulfonamide 2,2,2-Trifluoroacetate] it was more than 10 µM; in that of `Cc1cc(N2CCOc3cc(S(=O)(=O)Nc4nccs4)ccc32)cc(C)c1N(C)C` [Example 161, 4-(4-(Dimethylamino)-3,5-Dimethylphenyl)-N-(Thiazol-2-Yl)-3,4-Dihydro-2H-Benzo[B][1,4]Oxazine-7-Sulfonamide 2,2,2-Trifluoroacetate], 3.49 µM.

Consider `O=S(=O)(Nc1nccs1)c1ccc2c(c1)OCCN2c1ccc(C(F)(F)F)cc1C1=CCNCC1` [Example 38, 4-(2-(1,2,3,6-Tetrahydropyridin-4-Yl)-4-(Trifluoromethyl)Phenyl)-N-(Thiazol-2-Yl)-3,4-Dihydro-2H-Benzo[B][1,4]Oxazine-7-Sulfonamide 2,2,2-Trifluoroacetate], for which the 50% inhibitory concentration (IC50) at Nav 1.5 is 0.254 µM. Compared with the last compound, the IC50 is about 14-fold lower.
